By Ki is commonly meant the equilibrium dissociation constant of an inhibitor or competing ligand from its target. Higher therefore signals weaker binding. The term ED50 denotes the dose at which the effect has come halfway, by size or by number of responders. The low end stands for an effect at a small dose, the high end for a need for a large dose. In general, LD50 refers to the dose at which mortality reaches 50%.

This is an account of results in US5532240A, “Condensed thiophene compound and pharmaceutical use thereof” (Yoshitomi Pharmaceutical Industries, Ltd., priority 1991, dated 1996).

The test system of data set [1] is negative symptoms, EPS, depression and internal secretion in patients. Particulars: cited from earlier work.
A further data set concerns D2. Particulars: cited from earlier work.
For data set [2], the target named is T1, serotonin 2 (5-HT2) receptor (Rattus norvegicus, UniProt P14842).
T1 construct: A crude synaptosome fraction was separated from hippocampus; from tissue; host or cells: hippocampus of 9-10 week-old Wistar rats, crude synaptosome fraction
T1 sequence (P14842 whole entry): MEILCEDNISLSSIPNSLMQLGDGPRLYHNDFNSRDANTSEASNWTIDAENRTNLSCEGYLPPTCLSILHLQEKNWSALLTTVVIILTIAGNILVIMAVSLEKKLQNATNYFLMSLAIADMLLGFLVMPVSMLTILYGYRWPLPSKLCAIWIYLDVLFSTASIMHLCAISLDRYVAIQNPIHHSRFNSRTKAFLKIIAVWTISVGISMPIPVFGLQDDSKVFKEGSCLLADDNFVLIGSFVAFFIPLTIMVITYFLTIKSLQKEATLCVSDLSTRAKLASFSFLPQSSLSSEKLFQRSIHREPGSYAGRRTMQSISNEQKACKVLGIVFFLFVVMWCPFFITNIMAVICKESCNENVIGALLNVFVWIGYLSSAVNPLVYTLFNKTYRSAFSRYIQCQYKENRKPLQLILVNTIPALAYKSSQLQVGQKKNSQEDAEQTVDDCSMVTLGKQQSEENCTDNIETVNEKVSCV
Description: Affinity for serotonin 2 receptor (tritiated ketanserin binding). Particulars: rat hippocampus crude synaptosomes; [3H]ketanserin 0.2 nM; 37° C., 20 min. On the set-up: species or system Wistar rats. As for the experimental part: Affinity for serotonin 2 receptor
A specific binding of serotonin 2 (5-HT2) receptor was tested according to the method described in Mol. Pharmacol. 21, 301 (1981).
A crude synaptosome fraction was separated from hippocampus of 9-10 week-old Wistar rats, and suspended in 50 mM Tris-HCl buffer (pH 7.7) for the experiment. The test compound at several concentration and tritiated ketanserin (final concentration 0.2 nM) were added to the synaptosome suspension, and each mixture was incubated at 37° C. for 20 minutes. After the incubation, the mixture was filtered with suction through Whatman GF/B (trade mark) glass filter. The filter was washed with 50 mM Tris-HCl buffer (pH 7.7), and the radioactivity of the filter was measured by a liquid scintillation counter. Non-specific binding was determined in the presence of 10^-5 M mianserin. The concentration necessary for 50% inhibition (IC50) was determined on a graph, and inhibition constant (Ki value ) was calculated.

In data set [3] the test system is apomorphine-induced hyperactivity. Description: Anti-apomorphine action (in mouse). It is filed as in vivo, male dd mice. The following applies: oral, 60 min before 0.5 mg/kg s.c. apomorphine hydrochloride, movement lowered by 50%. The protocol: Anti-apomorphine action (in mouse)
Male dd mice at 3 per group were used for the experiment. The test compound was orally administered to the mice, and 60 minutes later, 0.5 mg/kg of apomorphine hydrochloride was subcutaneously administered. the movement for 20 minutes from immediately after the administration of apomorphine hydrochloride was measured using Valimex (Columbus, USA). Each group was tested four times, and the amount of the test compound necessary to lower the movement by 50% than that of a control group was calculated from a graph and taken as ED50.

Data set [4] has as its target T2, serotonin 1A (5-HT1A) receptor (Rattus norvegicus, UniProt P19327).
T2 construct: A crude synaptosome fraction was separated from hippocampus; from tissue; host or cells: hippocampus of 9-10 week-old Wistar rats, crude synaptosome fraction
T2 sequence (P19327 1-422): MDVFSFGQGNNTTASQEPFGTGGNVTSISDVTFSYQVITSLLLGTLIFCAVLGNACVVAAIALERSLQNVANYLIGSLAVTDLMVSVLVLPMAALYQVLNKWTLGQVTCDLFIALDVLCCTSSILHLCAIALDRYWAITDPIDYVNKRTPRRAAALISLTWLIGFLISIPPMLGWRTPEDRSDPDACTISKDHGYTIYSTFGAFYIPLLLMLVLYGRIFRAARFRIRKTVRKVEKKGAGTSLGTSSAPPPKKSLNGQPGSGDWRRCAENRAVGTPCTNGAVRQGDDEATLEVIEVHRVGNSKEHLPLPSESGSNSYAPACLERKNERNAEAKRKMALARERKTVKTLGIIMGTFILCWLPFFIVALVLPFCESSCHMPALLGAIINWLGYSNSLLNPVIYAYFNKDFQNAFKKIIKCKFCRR
In words: Affinity for serotonin 1A receptor (tritiated 8-OH-DPAT binding). Also on record: species or system Wistar rats. The following applies: rat hippocampus crude synaptosomes; [3H]8-OH-DPAT 0.2 nM; 37° C., 12 min. As for the experimental part: Affinity for serotonin 1A receptor
A specific binding of serotonin 1A (5-HT1A) receptor was tested according to the method described in J. Neurochem. 44, 1685 (1985).
A crude synaptosome fraction was separated from hippocampus of 9-10 week-old Wistar rats, and suspended in 50 mM Tris-HCl buffer (pH 7.4) containing 1 mM manganese chloride for the experiment. The test compound at several concentrations and tritiated 8-hydroxy-2-dipropyl-aminotetralin(8-OH-DPAT, final concentration 0.2 nM) were added to the synaptosome suspension, and each mixture was incubated at 37° C. for 12 minutes. After the incubation, the mixture was filtered with suction through Whatman GF/B (trade mark) glass filter. The filter was washed with 50 mM Tris-HCl buffer (pH 7.7), and the radioactivity of the filter was measured by a liquid scintillation counter. Non-specific binding was determined in the presence of 10^-5 M serotonin (5-HT). The concentration necessary for 50% inhibition (IC50) was determined on a graph, and inhibition constant (Ki value) was calculated.

The next data set in a line: Acute toxicity. The following applies: mouse, in vivo; oral, male ddY mice, observed 5 days; read-out: LD50 (50% lethal dose). An excerpt: Male ddY mice weighing 20-28 g were used at 10 per group. They were orally administered with the compound of Example 24 and observed for 5 days after the administration.
Another data set has as its target T3, dopamine 2 (D2) receptor (Rattus norvegicus, UniProt P61169).
T3 construct: A synaptosome fraction was separated from corpus striatum; from tissue; host or cells: corpus striatum of 9-10 week-old Wistar rats, synaptosome fraction
In words: Affinity for dopamine 2 receptor (tritiated spiperone binding). On the set-up: species or system Wistar rats. The following applies: rat corpus striatum synaptosomes; [3H]spiperone 0.2 nM; 37° C., 20 min. As for the experimental part: Affinity for dopamine 2 receptor
A specific binding of dopamine 2 (D2) receptor was tested according to the method described in Eur. J. Pharmacol. 46, 377 (1977).
A synaptosome fraction was separated from corpus striatum of 9-10 week-old Wistar rats, and suspended in 50 mM Tris-HCl buffer (pH 7.1) containing 120 mM sodium chloride, 5 mM potassium chloride, 2 mM calcium chloride, 1 mM magnesium chloride, 10 μM pargyline and 0.1% ascorbic acid for the experiment.
The test compound at several concentrations and tritiated spiperone (final concentration 0.2 nM) were added to the synaptosome suspension, and each mixture was incubated at 37° C. for 20 minutes. After the incubation, the mixture was filtered with suction through Whatman GF/B (trade mark) glass filter. The filter was washed with 50 mM Tris-HCl buffer (pH 7.7), and the radioactivity of the filter was measured by a liquid scintillation counter. Non-specific binding was determined in the presence of 10^-4 M (±)-sulpiride. The concentration necessary for 50% inhibition (IC50) was determined on a graph, and inhibition constant (Ki value) was calculated.

In data set [5] the test system is ergometrine-induced head-twitches. In words: Anti-ergometrine action (head-twitch). It is filed as in vivo, male ddY mice. Particulars: Mus musculus; oral, 60 min before 20 mg/kg i.p. ergometrine maleate; head-twitch vanished, Probit. The protocol:
Male ddY mice at 12 per group were used for the experiment. The test compound was orally administered to the mice, and 60 minutes later, 20 mg/kg of ergometrine maleate was intraperitoneally administered. The amount of the test compound necessary to vanish the head-twitch reaction for 10 minutes from immediately after the administration of ergometrine maleate was calculated as ED50 value by Probit method.

The subject of data set [6] is catalepsy induced by haloperidol. Particulars: preclinical; cited from earlier work.
Data set [7] deals with conditioned avoidance response (CAR). Particulars: administered with D2 antagonist; cited from earlier work.

Entries after “also recorded” stand apart in the source; their conditions may differ. Like-named read-outs stand apart in the source and are kept apart here.

T3 sequence (P61169 whole entry): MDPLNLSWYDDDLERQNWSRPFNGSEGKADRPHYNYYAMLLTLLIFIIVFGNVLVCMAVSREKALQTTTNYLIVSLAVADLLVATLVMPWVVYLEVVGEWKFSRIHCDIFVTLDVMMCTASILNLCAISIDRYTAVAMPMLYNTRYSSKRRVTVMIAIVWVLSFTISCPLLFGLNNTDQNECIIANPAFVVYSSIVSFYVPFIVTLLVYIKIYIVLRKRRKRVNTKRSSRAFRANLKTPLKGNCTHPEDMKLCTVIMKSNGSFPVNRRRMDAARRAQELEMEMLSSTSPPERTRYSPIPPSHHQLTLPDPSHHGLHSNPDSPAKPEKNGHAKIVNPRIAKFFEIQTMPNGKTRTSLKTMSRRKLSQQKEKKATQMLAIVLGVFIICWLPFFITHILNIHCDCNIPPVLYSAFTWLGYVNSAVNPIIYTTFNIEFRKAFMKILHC

On to `Cc1nc2n(c(=O)c1CCN1CCC(c3noc4cc(F)ccc34)CC1)CCCC2` [Risperidone], for which the figures for the “EPS / side-effects in clinical use” value in data set [1] and in data set [1] (listed as risperidone) were “low EPS liability” and “EPS is appeared in high dose; also recorded: side-effect of internal secretion”, respectively. Moreover, the “clinical effect on symptoms” value in [1] is reported as “effective antipsychotic; also recorded: beneficial effects on the negative symptoms of schizophrenia”. Besides, the “D2 receptor antagonistic properties” value in the data set on D2 was “potent”.
Regarding `CC(=O)N1CCc2c(sc(C)c2CCN2CCC(c3noc4cc(F)ccc34)CC2)C1` [Example 24, 6-acetyl-3-(2-(4-(6-fluoro-1,2-benzisoxazol-3-yl)piperidin-1-yl)ethyl)-4,5,6,7-tetrahydro-2-methylthieno[2,3-c]pyridine], the Ki in data set [2] was 62 pM; in data set [4], 32000 pM; at dopamine 2 (D2) receptor, 460 pM. Also, the figures for the ED50 in data set [3] and in data set [5] were 0.39 mg/kg and 0.37 mg/kg, respectively. Besides, the LD50 at 120 h in the data set “Acute toxicity” is 205 mg/kg.
As for `CCCN(CCC)C1CCc2cccc(O)c2C1` (stereo not drawn) [8-OH DPAT, 8-hydroxy-2-dipropyl-aminotetralin], the “effect on catalepsy induced by haloperidol” value in data set [6] was “reverse catalepsy induced by haloperidol”. The “inhibition of conditioned avoidance response (CAR)” value in data set [7] is recorded as “inhibit conditioned avoidance response (CAR) more potent than that of D2 antagonist only”.
